Results taken from patent publication US12005056B2, “Centrally-active ghrelin agonist and medical uses thereof” (Helsinn Healthcare SA, priority 2018, dated 2024).
“Also recorded” adds a separate entry of the source. Where two headings read alike, the source gives them in different places.

Tests used:
human GHSR1a receptor = target: T1, human GHSR1a receptor (Homo sapiens, UniProt Q92847); test: FLIPR assay in HEK293 cells stably expressing human GHSR1a receptor; type: cell-based; details: read-out: EC50, agonist activity in FLIPR assay
T1 construct: expressed in transfected cells; host or cells: HEK293
T1 sequence (Q92847 whole entry): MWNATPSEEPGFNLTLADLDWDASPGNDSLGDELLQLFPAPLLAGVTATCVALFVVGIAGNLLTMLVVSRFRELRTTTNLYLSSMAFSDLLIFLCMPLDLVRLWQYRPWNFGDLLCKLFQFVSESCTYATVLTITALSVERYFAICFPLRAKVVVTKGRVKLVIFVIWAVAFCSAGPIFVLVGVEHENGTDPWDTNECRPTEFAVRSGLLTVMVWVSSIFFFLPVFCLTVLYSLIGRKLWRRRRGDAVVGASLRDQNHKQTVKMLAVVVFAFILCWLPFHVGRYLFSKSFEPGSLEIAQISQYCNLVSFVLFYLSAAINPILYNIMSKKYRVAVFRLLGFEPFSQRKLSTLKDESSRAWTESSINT
Method: HEK293 cells stably expressing human GHSR1a receptor were used in FLIPR assay. Cells were maintained under standard procedures. One day prior the test, cells were seeded at a density of 1.5×10^4/well in a Matrigel® coated 384-well plate with 30 μl of complete DMEM medium, and incubated at 37° C. in 5% CO2 for 22-26 hrs. On the test day, 4× loading dye was added into each well (10 μl per well for 384 well plates). Assay plates were incubated at 37° C. in the dark for 30 minutes. Then the dye content was removed by centrifugation at 300 rpm for 30 s. 40 μL HBSS/Hepes with 1 mM probenicid was added with Platemate Matrix (low speed setting, Thermo). The plate was then placed in FLIPR Tetra (Molecular Device) and 5× working concentrations of agonists were added by FLIPR. Fluorescence signal was detected with FLIPR at room temperature according to standard settings.

human GHSR1 receptor = target: T2, human GHSR1 receptor (Homo sapiens, UniProt Q92847); test: [125I]Ghrelin binding assay on membranes from BHK cells; details: 1 nM [125I]Ghrelin, BHK cell membranes
T2 construct: expressed in transfected cells; host or cells: BHK cells (membrane preparation)
T2 sequence (Q92847 whole entry): as above
Method: In additional binding study, compound A was dissolved in DMSO and diluted with water in different range of concentrations. Membrane protein prepared from BHK cells stably expressing human GHSR1 receptor were used for binding assay. The membrane was diluted in assay buffer to yield 20 μg/well in 120 μl. The binding assay was set up in 96 well plate as following: 120 μl [^125I]Ghrelin (final concentration 1 nM) and 15 μl compound A (10×) diluted in the assay buffer. The reaction mixture was incubated at room temperature for 30 minutes before terminating by quick filtration onto GF/B filtration plate pre-soaked in 0.3% PEI using cell harvester (Perkin Elmer). The filter was washed three times and dried at 37° overnight. The radioactivity bound to filter membrane was measured with MicroBeta Trilux (Perkin Elmer).

[1] = mouse, in vivo
Method: Sixty female Balb/C mice weighing 20-25 g at start of experiment were used and divided into 4 groups of 15 mice each. […] Body weights were measured daily, immediately prior to the initiation of dosing.

healthy male subjects = type: in vivo, human; details: for maximal decrease of mean heart rate (Holter-ECG): 1 to 3 hours after administration
Method: The study was performed as a single-center, randomized, double-blind, placebo-controlled, Phase 1 study with healthy male subjects receiving single ascending oral doses of Compound A. A dose-escalation design was considered to be appropriate to investigate the safety and tolerability of this new compound in the first single dose study in humans. Within each cohort six subjects were to receive a single oral dose of Compound A and two subjects were to receive placebo on Day 1.
Each subject received a single oral dose of either Compound A or placebo in a randomized fashion. Study drug administrations were performed in the morning of Day 1. The proper administration of the study medication was supervised by the Investigator or delegate. This included checking the oral and buccal cavity. The study medication or placebo was supplied as powder-containing gelatin capsules; they were administered orally together with 240 mL water. Subjects were dosed in a fasted state (no food was taken for at least 8 hours prior to dosing). Access to food was restricted until 4 hours after dosing.
12-lead ECGs were recorded on Day −1 and from pre-dose on Day 1 to 72 hours after drug administration. In addition, a Holter-ECG was recorded from about at least 12 hours prior to the planned dosing until 24 hours post-dose. Triplicate extracts (1 min interval) were taken at the same time-points when paper ECGs were taken. Vital signs (blood pressure, pulse rate, body temperature [auricular measurement]) were measured on Day −1 and then from pre-dose on Day 1 to 72 hours post-dose. 12-lead ECGs were recorded as scheduled in the study flow chart using the ECG system (Cardiosoft, Marquette Hellige). Triplicate ECGs were recorded at 36, 48 and 72 hours post-dose. The ECGs were recorded in supine position after at least 5 minutes rest or after at least 15 minutes rest at time points when ECG extracts from the Holter-ECG were done (to allow for a sufficient time period). ECGs were plotted with a paper speed of 50 mm/s and 10 mm/mV amplitude, with 10 seconds recording duration for all leads and at least 3 complexes, but preferably 5 complexes in each lead. The following ECG parameters were evaluated: heart rate, PR interval, QRS interval, QT interval, QTcB (using Bazett's correction formula) and QTcF (using Fridericia's correction formula).

[2] = rat, in vivo
[3] = system: bortezomib-treated Wistar rats; test: Bortezomib study, therapeutic paradigm; details: for Allodynia / Body Weight / DRG/nerve pathology / IENFD / NCS: Bortezomib Therapeutic setting, 0.2 mg/kg (i.v.) 3 times/week for 8 weeks
[4] = therapeutic setting, all doses, monohydrochloride salt

## 3-(1-(2,3-dichloro-4-methoxyphenyl) ethyl)-1-methyl-1-(1,3,3-trimethylpiperidin-4-yl)urea monohydrochloride salt [Compound A]
Human GHSR1a receptor
  EC50: 1.25 ± 0.42 nM
Human GHSR1 receptor
  Ki: 1.42 ± 0.35 nM
[1]
  tissue penetration index (ratio of tissue/plasma) in DRG: 18-19 fold
  tissue penetration index (ratio of tissue/plasma) in SN: 9-12 fold
[1]; 10 mg/kg
  Tissue penetration index (DRG/plasma ratio): 17.6
  Tissue penetration index (SN/plasma ratio): 8.9
[1]; 30 mg/kg
  Tissue penetration index (DRG/plasma ratio): 18.9
  Tissue penetration index (SN/plasma ratio): 12.0
[1]; po, 30 mg/kg
  AUC0-∞ in sciatic nerve and DRG relative to plasma: 3-4 fold
  terminal half-life in plasma: approximately 1 h
  terminal half-life in sciatic nerve: approximately 4.7 h
Healthy male subjects; 0.1 to 10 mg single oral dose
  time after dosing at which pre-dose heart rate levels were reached again: 6 h
Healthy male subjects; groups treated with Compound A
  pulse rate: decrease
Healthy male subjects; single oral dose 0.1 mg
  maximal decrease of mean heart rate (Holter-ECG): 5.1 bpm
Healthy male subjects; single oral dose 0.3 mg
  maximal decrease of mean heart rate (Holter-ECG): 6.8 bpm
Healthy male subjects; single oral dose 1.0 mg
  maximal decrease of mean heart rate (Holter-ECG): 15.9 bpm
Healthy male subjects; single oral dose 10 mg
  maximal decrease of mean heart rate (Holter-ECG): 18.3 bpm
[2]; iv, 3 mg/kg
  AUClast: 937 ± 145 ng·h/mL
  C0083/Cmax: 682 ± 58.5 ng/mL
  CL (clearance): 52.0 ± 9.22 mL/min/kg
  Vss (volume distribution at steady state): 6.6 ± 0.491 L/kg
  t1/2, z: 1.92 ± 0.121 h
[2]; iv, 10 mg/kg
  AUClast: 3540 ± 765 ng·h/mL
[2]; po, 3 mg/kg
  AUClast: 780 ± 155 ng·h/mL
  C0083/Cmax: 181 ± 43.7 ng/mL
  F (bioavailability): 83 ± 21%
  t1/2, z: 2.56 ± 0.177 h
  tmax: 1.67 ± 0.577 h
[2]; po, 10 mg/kg
  AUClast: 3400 ± 1010 ng·h/mL
  tmax: 1.67 ± 2.02 h
[2]; po, 30 mg/kg
  AUClast: 12300 ± 1400 ng·h/mL
  C0083/Cmax: 1430 ± 208 ng/mL
  F (bioavailability): 116 ± 28%
  bioavailability: exceeded 80%
  t1/2, z: 3.26 ± 0.170 h
  tmax: 1.67 ± 0.577 h
[3]; Compound A dose 3
  Allodynia: +
  Body Weight: +/−
  DRG/nerve pathology: −
  IENFD: −
  NCS: +/−
[3]; Compound A dose 10
  Allodynia: +
  Body Weight: +/−
  DRG/nerve pathology: +/−
  IENFD: −
  NCS: +/−
[3]; Compound A dose 30
  Allodynia: +
  Body Weight: +/−
  DRG/nerve pathology: +/−
  IENFD: −
  NCS: −
[3]; therapeutic setting
  protective effects on DRG/nerve pathology: not present
[3]; therapeutic setting, after 5 weeks and at the end of treatment, all doses
  allodynia vs CTRL (mechanical threshold): protected
[3]; [4]
  caudal NCV and potential amplitude vs CTRL: statistically significant reduction
  digital NCV vs CTRL: statistically significant reduction only the animals treated with bortezomib alone; also recorded: Only the animals treated with bortezomib alone showed a significant reduction
[3]; therapeutic setting, end of treatment, Compound A 30
  body weight vs. CTRL and bortezomib groups: significant increase in body weight
[3]; therapeutic setting, following 10 days co-treatment
  body weight vs. CTRL and bortezomib groups: significant increase of body weight
[3]; therapeutic setting, highest dose of Compound A
  digital potential amplitude vs CTRL: reduction in potential amplitude
